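Protocol summary: plate cells (96-well), add compound at 5 concentrations, incubate 48 h, interpolate endpoints linearly. Abbreviation: GI50, concentration required for 50% inhibition of growth.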 Calls of active or inactive are those of the source. Rule as the data show it: active = GI50 up to about 1.1 µM and inactive = higher.
Key:
Assay in all cases: inhibition of tumour cell growth, NCI panel, 48 h
HCT-116 = system: HCT-116
SK-OV-3 = system: SK-OV-3
SF-539 = system: SF-539
COLO 205 = system: COLO 205
A549 = system: A549
TK-10 = system: TK-10
SK-MEL-5 = system: SK-MEL-5
UO-31 = system: UO-31
Malme-3M = system: Malme-3M
K562 = system: K562
IGROV-1 = system: IGROV-1
DMS-114 = system: DMS-114
RPMI-8226 = system: RPMI-8226
OVCAR-5 = system: OVCAR-5
HOP-92 = system: HOP-92
SK-MEL-2 = system: SK-MEL-2
M14 = system: M14
XF498 = system: XF498
U-251 = system: U-251
SNB-19 = system: SNB-19
DLD-1 = system: DLD-1
NCI-H23 = system: NCI-H23
RXF 393 = system: RXF 393
HOP-18 = system: HOP-18
HT-29 = system: HT-29
OVCAR-4 = system: OVCAR-4
SF-295 = system: SF-295
SF-268 = system: SF-268
HOP-62 = system: HOP-62
HCC 2998 = system: HCC 2998
SR = system: SR
HCT-15 = system: HCT-15
M19-MEL = system: M19-MEL
MOLT-4 = system: MOLT-4
786-0 = system: 786-0
EKVX = system: EKVX
CAKI-1 = system: CAKI-1
SNB-78 = system: SNB-78
KM12 = system: KM12
OVCAR-3 = system: OVCAR-3
OVCAR-8 = system: OVCAR-8
UACC-62 = system: UACC-62
SK-MEL-28 = system: SK-MEL-28
A498 = system: A498
HL-60 = system: HL-60
ACHN = system: ACHN
NCI-H522 = system: NCI-H522
SW-620 = system: SW-620
SN12C = system: SN12C
LOX IMVI = system: LOX IMVI
UACC-257 = system: UACC-257
LXFL 529 = system: LXFL 529
SNB-75 = system: SNB-75
NCI-H226 = system: NCI-H226
CCRF-CEM = system: CCRF-CEM
DMS-273 = system: DMS-273
NCI-H460 = system: NCI-H460
KM-20L2 = system: KM-20L2

In the case of CN(C)CC/C(=N\Nc1ccccc1)c1ccccc1, the GI50 (HCT-116) is reported as 12.2 µM (inactive), the GI50 (SK-OV-3) is reported as 15.3 µM (inactive) and the GI50 (SF-539) is reported as 15.8 µM (inactive). The GI50 (COLO 205) was 17.6 µM (inactive), the GI50 (A549) was 45 µM (inactive) and the GI50 (TK-10) was 14.3 µM (inactive). The GI50 (SK-MEL-5) was 17.7 µM (inactive), the GI50 (UO-31) was 6.85 µM (inactive) and the GI50 (Malme-3M) was 4.78 µM (inactive). The GI50 (K562) was 2.48 µM (inactive), the GI50 (IGROV-1) was 29.4 µM (inactive) and the GI50 (DMS-114) was 15.6 µM (inactive). For the same compound, the GI50 (RPMI-8226) was 43.7 µM (inactive), the GI50 (OVCAR-5) was 14.4 µM (inactive) and the GI50 (HOP-92) was 11.1 µM (inactive). For the same compound, the GI50 (SK-MEL-2) was 9.16 µM (inactive), the GI50 (M14) was 2 µM (inactive) and the GI50 (XF498) was 3.89 µM (inactive). The GI50 (U-251) was 27.4 µM (inactive), the GI50 (SNB-19) was 40.9 µM (inactive) and the GI50 (DLD-1) was 69.2 µM (inactive). For the same compound, the GI50 (NCI-H23) was 23 µM (inactive), the GI50 (RXF 393) was 31.2 µM (inactive) and the GI50 (HOP-18) was 31 µM (inactive). The GI50 (HT-29) was 2.13 µM (inactive), the GI50 (OVCAR-4) was 3.25 µM (inactive) and the GI50 (SF-295) was 2.56 µM (inactive). The GI50 (SF-268) was 8.13 µM (inactive), the GI50 (HOP-62) was 13.4 µM (inactive) and the GI50 (HCC 2998) was 12.2 µM (inactive). For the same compound, the GI50 (SR) was 47.8 µM (inactive), the GI50 (HCT-15) was 2.88 µM and the GI50 (M19-MEL) was 25.2 µM (inactive). The GI50 (MOLT-4) was 2.83 µM (inactive), the GI50 (786-0) was 23 µM (inactive) and the GI50 (EKVX) was 15.7 µM (inactive). For the same compound, the GI50 (CAKI-1) was 3.18 µM (inactive), the GI50 (SNB-78) was 11.8 µM (inactive) and the GI50 (KM12) was 1.57 µM (inactive). The GI50 (OVCAR-3) was 13.9 µM (inactive), the GI50 (OVCAR-8) was 4.35 µM (inactive) and the GI50 (UACC-62) was > 100 µM (inactive). The GI50 (SK-MEL-28) was > 10 µM (inactive).
With COc1cc2ccc3c4cc(OC)c(OC)cc4c[n+](C)c3c2cc1O the GI50 (HCT-116) was > 100 µM (inactive), the GI50 (SK-OV-3) was > 100 µM (inactive) and the GI50 (SF-539) was > 100 µM (inactive). The GI50 (COLO 205) was > 90.8 µM (inactive), the GI50 (A549) was > 100 µM (inactive) and the GI50 (TK-10) was > 100 µM (inactive). The GI50 (SK-MEL-5) was > 100 µM (inactive), the GI50 (A498) was > 24.4 µM (inactive) and the GI50 (UO-31) was > 100 µM (inactive). The GI50 (Malme-3M) was > 100 µM (inactive), the GI50 (K562) was > 83.4 µM (inactive) and the GI50 (IGROV-1) was > 100 µM (inactive). The GI50 (DMS-114) was 8.99 µM (inactive), the GI50 (HL-60) was > 100 µM (inactive) and the GI50 (RPMI-8226) was > 100 µM (inactive). For the same compound, the GI50 (ACHN) was > 42.2 µM (inactive), the GI50 (OVCAR-5) was > 100 µM (inactive) and the GI50 (HOP-92) was > 100 µM (inactive). The GI50 (NCI-H522) was 8.97 µM (inactive), the GI50 (SW-620) was > 100 µM (inactive) and the GI50 (SN12C) was 2.1 µM (inactive). The GI50 (SK-MEL-2) was > 100 µM (inactive), the GI50 (M14) was > 100 µM (inactive) and the GI50 (XF498) was 24.7 µM (inactive). The GI50 (LOX IMVI) was > 73.8 µM (inactive), the GI50 (U-251) was 6.37 µM (inactive) and the GI50 (UACC-257) was > 100 µM (inactive). For the same compound, the GI50 (SNB-19) was 3.91 µM (inactive), the GI50 (LXFL 529) was 12.6 µM (inactive) and the GI50 (DLD-1) was > 100 µM (inactive). For the same compound, the GI50 (NCI-H23) was 37.1 µM (inactive), the GI50 (RXF 393) was > 100 µM (inactive) and the GI50 (HOP-18) was > 100 µM (inactive). The GI50 (SNB-75) was 15.2 µM (inactive), the GI50 (HT-29) was > 100 µM (inactive) and the GI50 (OVCAR-4) was > 81.8 µM (inactive). The GI50 (SF-268) was 0.658 µM (active), the GI50 (HOP-62) was > 92.5 µM (inactive) and the GI50 (HCC 2998) was > 100 µM (inactive). The GI50 (HCT-15) was over 100 µM, the GI50 (M19-MEL) was > 100 µM (inactive) and the GI50 (MOLT-4) was > 100 µM (inactive). The GI50 (NCI-H226) was 9.16 µM (inactive), the GI50 (786-0) was > 100 µM (inactive) and the GI50 (EKVX) was > 100 µM (inactive). The GI50 (CAKI-1) was > 100 µM (inactive), the GI50 (SNB-78) was > 100 µM (inactive) and the GI50 (KM12) was > 100 µM (inactive). For the same compound, the GI50 (OVCAR-3) was 67.5 µM (inactive), the GI50 (CCRF-CEM) was > 100 µM (inactive) and the GI50 (DMS-273) was 55.5 µM (inactive). The GI50 (NCI-H460) was > 26.7 µM (inactive), the GI50 (OVCAR-8) was 32.3 µM (inactive) and the GI50 (KM-20L2) was > 100 µM (inactive). The GI50 (UACC-62) was > 100 µM (inactive) and the GI50 (SK-MEL-28) was > 100 µM (inactive).
